This note sets out measurements from US10017522B2, “Alpha helix mimetics and methods relating thereto” (PRISM BioLab Co., Ltd., priority 2009, dated 2018).

The test system of the assay is Wnt signaling pathway. In words: Reporter gene assay (SuperTOPFLASH luciferase, LiCl stimulated, Hek-293 STF1.1 cells). Format: cell-based. The settings on record: Homo sapiens, HEK293; at the concentration of 10 μM; stably transfected cell line Hek-293, STF1.1; 20 mM LiCl medium added, 24 hours; read-out: inhibitory activity determined by reporter gene assay. The method, then:
Screening for inhibitory action of the Wnt signaling pathway can be carried out according to the following procedure using the stably transfected cell line Hek-293, STF1.1. • Growth Medium: DMEM, 10% FBS, Pen-Strep, supplemented with 400 μg/mL G418 to maintain selection of SuperTOPFLASH driven Luciferase gene • 1. On the day prior to assay, split cells into a white opaque 96-well plate at 20,000 cells per well in 200 μl of complete growth medium • 2. Incubate the plate overnight at 37° C., 5% CO2 and allow the cells to attach • 3. Next day, prepare the inhibitors to be tested in complete growth medium, without G418, at 2× the desired final concentration (all conditions are done in duplicates) • 4. Carefully remove the old medium from each well using a multiple pipettor • 5. […] Read plate on the Packard TopCount
In the tables, the compounds having inhibitory activity more than 50% at the concentration of 10 microM (μM) determined by reporter gene assay are shown below.
Screening for inhibitory action of the Wnt signaling pathway was carried out according to the following procedure using the stably transfected cell line Hek-293, STF1.1 • Growth Medium: DMEM, 10% FBS, Pen-Strep, supplemented with 400 μg/mL G418 to maintain selection of SuperTOPFLASH driven Luciferase gene • 1. […] Read plate on the Packard TopCount

For the compound `CN1[C@@H](Cc2ccc(O)cc2)C(=O)N(Cc2cccc3ccccc23)CC2N(C(=O)NCc3ccccc3)CCC(=O)N21` (stereo partly drawn) [Example I-268, (2S)—N-benzyl-2-(4-hydroxybenzyl)-1-methyl-4-(naphthalen-1-ylmethyl)-3,9-dioxooctahydropyrimido[1,2-b][1,2,5]triazepine-6(7H)-carboxamide], the inhibition at 10 µM was at least 50%.
